Measurements reported in patent US20070128217A1 (priority 2003, published 2007).

Assays:
[1] = tested on: control sera (pooled serum of ten healthy LUMC hospital workers; commercial negative donor pooled serum from the Dutch bloodbank); assay type: binding, human; design: Binding of Control serum LUMC to linear peptides / Binding of Control serum Blood-bank to linear peptides / Binding of Control serum LUMC to looped peptides / Binding of Control Serum Blood-Bank to Looped peptides / Binding of Control serum LUMC to linear peptides of the protein M of SARS-CoV Urbani / Binding of Control serum Blood-bank to linear peptides of the protein M of SARS-CoV Urbani / Binding of Control serum LUMC to looped peptides of the protein M of SARS-CoV Urbani / Binding of Control Serum Blood-Bank to Looped peptides of the protein M of SARS-CoV Urbani: unit not given here
[2] = tested on: antibodies in sera from SARS patients (sera 1a, 1b, 2, 6, 37, 62, London, SARS-yellow, SARS-green); assay type: binding, human; design: Binding of serum 6 to linear peptides of protein X1 of SARS-CoV Urbani / Binding of serum 37 to linear peptides of protein X1 of SARS-CoV Urbani / Binding of serum 6 to looped/cyclic peptide (PEPSCAN-ELISA) / Binding of serum 37 to looped/cyclic peptide (PEPSCAN-ELISA) / Binding of serum 37 to looped/cyclic peptides of protein X1 of SARS-CoV Urbani / Binding of serum 6 to linear peptides of protein X2 / Binding of serum 37 to linear peptides of protein X2 / Binding of serum 37 to looped/cyclic peptides of protein X2 of SARS-CoV Urbani / Binding of serum 6 to linear peptides of protein M of SARS-CoV Urbani / Binding of serum 37 to linear peptides of protein M of SARS-CoV Urbani / Binding of serum 6 to looped/cyclic peptides of protein M of SARS-CoV Urbani / Binding of serum 37 to looped/cyclic peptides of protein M of SARS-CoV Urbani / Binding of serum 6 to linear peptides of protein X3 of SARS-CoV Urbani / Binding of serum 37 to linear peptides of protein X3 of SARS-CoV Urbani / Binding of serum 37 to looped/cyclic peptides of protein X3 of SARS-CoV Urbani / Binding of serum 6 to linear peptides of protein X4 of SARS-CoV Urbani / Binding of serum 37 to linear peptides of protein X4 of SARS-CoV Urbani / Binding of serum 37 to looped/cyclic peptides of protein X4 of SARS-CoV Urbani / Binding of serum 6 to linear peptides of protein X5 of SARS-CoV Urbani / Binding of serum 37 to linear peptides of protein X5 of SARS-CoV Urbani / Binding of serum 37 to looped/cyclic peptides of protein X5 of SARS-CoV Urbani / Binding of serum 6 to linear peptides of protein N of SARS-CoV Urbani / Binding of serum 37 to linear peptides of protein N of SARS-CoV Urbani / Binding of serum 6 to linear peptide (PEPSCAN-ELISA) / Binding of serum 1a to looped/cyclic peptides of protein N of SARS-CoV Urbani / Binding of serum 1b to looped/cyclic peptides of protein N of SARS-CoV Urbani / Binding of serum 2 to looped/cyclic peptides of protein N of SARS-CoV Urbani / Binding of serum 6 to looped/cyclic peptides of protein N of SARS-CoV Urbani / Binding of serum 37 to looped/cyclic peptides of protein N of SARS-CoV Urbani / Binding of serum 62 to looped/cyclic peptides of protein N of SARS-CoV Urbani / Binding of serum London to looped/cyclic peptides of protein N of SARS-CoV Urbani / Binding of serum SARS-green to looped/cyclic peptides of protein N of SARS-CoV Urbani: unit not given here
[3] = tested on: rabbit serum obtained by immunizing a rabbit with the SARS-CoV strain Frankfurt 1; assay type: binding; design: Binding of a rabbit serum to linear peptides / Binding of a rabbit serum to looped peptides / Rabbit serum linear peptides / Rabbit serum looped peptides / Binding of a rabbit serum to linear peptides of protein N of SARS-CoV Urbani (Rabbit serum linear peptides) / Binding of a rabbit serum to looped/cyclic peptides of protein N of SARS-CoV Urbani (Rabbit serum looped peptides): unit not given here

SRRRLLACLCKHKKV
Binding of Control Serum Blood-Bank to Looped peptides [1]: 0.2 | Binding of Control serum Blood-bank to linear peptides [1]: 0.9 | Binding of Control serum LUMC to linear peptides [1]: 0.6 | Binding of Control serum LUMC to looped peptides [1]: 0.2 | Binding of serum 1a to looped/cyclic peptides of protein X2 of SARS-CoV Urbani [2]: 0.2 | Binding of serum 1b to looped/cyclic peptides of protein X2 of SARS-CoV Urbani [2]: 0.2 | Binding of serum 2 to looped/cyclic peptides of protein X2 of SARS-CoV Urbani [2]: 0.1 | Binding of serum 6 to looped/cyclic peptides of protein X2 of SARS-CoV Urbani [2]: 0.0 | Binding of serum 37 to looped/cyclic peptides of protein X2 of SARS-CoV Urbani [2]: 0.2 | Binding of serum 62 to looped/cyclic peptides of protein X2 of SARS-CoV Urbani [2]: 0.3 | Binding of serum London to looped/cyclic peptides of protein X2 of SARS-CoV Urbani [2]: 0.1 | Binding of serum SARS-green to looped/cyclic peptides of protein X2 of SARS-CoV Urbani [2]: 0.2 | Binding of serum SARS-yellow to looped/cyclic peptides of protein X2 of SARS-CoV Urbani [2]: 0.2 | Recognition of the peptide by sera of SARS-CoV infected individuals, and form (linear, looped/cyclic) in which it is recognized [2]: recognized in linear form | Binding of a rabbit serum to linear peptides [3]: 0.3 | Binding of a rabbit serum to looped peptides [3]: 0.4

VTAFQHQNSKKTTKL
Binding of Control Serum Blood-Bank to Looped peptides [1]: 0.5 | Binding of Control serum Blood-bank to linear peptides [1]: 0.3 | Binding of Control serum LUMC to linear peptides [1]: 0.5 | Binding of Control serum LUMC to looped peptides [1]: 0.5 | Binding of serum 1a to linear peptides of protein X2 [2]: 0.4 | Binding of serum 1a to looped/cyclic peptides of protein X2 of SARS-CoV Urbani [2]: 0.4 | Binding of serum 1b to linear peptides of protein X2 [2]: 0.4 | Binding of serum 1b to looped/cyclic peptides of protein X2 of SARS-CoV Urbani [2]: 0.3 | Binding of serum 2 to linear peptides of protein X2 [2]: 0.2 | Binding of serum 2 to looped/cyclic peptides of protein X2 of SARS-CoV Urbani [2]: 0.1 | Binding of serum 6 to linear peptides of protein X2 [2]: 0.3 | Binding of serum 6 to looped/cyclic peptides of protein X2 of SARS-CoV Urbani [2]: 0.3 | Binding of serum 37 to linear peptides of protein X2 [2]: 0.5 | Binding of serum 37 to looped/cyclic peptides of protein X2 of SARS-CoV Urbani [2]: 0.3 | Binding of serum 62 to linear peptides of protein X2 [2]: 0.3 | Binding of serum 62 to looped/cyclic peptides of protein X2 of SARS-CoV Urbani [2]: 0.5 | Binding of serum London to linear peptides of protein X2 [2]: 0.1 | Binding of serum London to looped/cyclic peptides of protein X2 of SARS-CoV Urbani [2]: 0.2 | Binding of serum SARS-green to linear peptides of protein X2 [2]: 0.1 | Binding of serum SARS-green to looped/cyclic peptides of protein X2 of SARS-CoV Urbani [2]: 0.2 | Binding of serum SARS-yellow to linear peptides of protein X2 [2]: 0.7 | Binding of serum SARS-yellow to looped/cyclic peptides of protein X2 of SARS-CoV Urbani [2]: 0.5 | Binding of a rabbit serum to linear peptides [3]: 0.6 | Binding of a rabbit serum to looped peptides [3]: 0.4

HGYFTEVYYQLESTQ
Binding of Control Serum Blood-Bank to Looped peptides [1]: 0.5 | Binding of Control serum Blood-bank to linear peptides [1]: 0.4 | Binding of Control serum LUMC to linear peptides [1]: 0.3 | Binding of Control serum LUMC to looped peptides [1]: 0.5 | Binding of serum 1a to linear peptides of protein X1 of SARS-CoV Urbani [2]: 0.6 | Binding of serum 1a to looped/cyclic peptides of protein X1 of SARS-CoV Urbani [2]: 0.5 | Binding of serum 1b to linear peptides of protein X1 of SARS-CoV Urbani [2]: 0.4 | Binding of serum 1b to looped/cyclic peptides of protein X1 of SARS-CoV Urbani [2]: 0.4 | Binding of serum 2 to linear peptides of protein X1 of SARS-CoV Urbani [2]: 0.4 | Binding of serum 2 to looped/cyclic peptides of protein X1 of SARS-CoV Urbani [2]: 0.4 | Binding of serum 6 to linear peptides of protein X1 of SARS-CoV Urbani [2]: 0.3 | Binding of serum 6 to looped/cyclic peptides of protein X1 of SARS-CoV Urbani [2]: 0.3 | Binding of serum 37 to linear peptides of protein X1 of SARS-CoV Urbani [2]: 0.4 | Binding of serum 37 to looped/cyclic peptides of protein X1 of SARS-CoV Urbani [2]: 0.5 | Binding of serum 62 to linear peptides of protein X1 of SARS-CoV Urbani [2]: 0.4 | Binding of serum 62 to looped/cyclic peptides of protein X1 of SARS-CoV Urbani [2]: 0.5 | Binding of serum London to linear peptides of protein X1 of SARS-CoV Urbani [2]: 0.2 | Binding of serum London to looped/cyclic peptides of protein X1 of SARS-CoV Urbani [2]: 0.2 | Binding of serum SARS-green to linear peptides of protein X1 of SARS-CoV Urbani [2]: 0.2 | Binding of serum SARS-green to looped/cyclic peptides of protein X1 of SARS-CoV Urbani [2]: 0.3 | Binding of serum SARS-yellow to linear peptides of protein X1 of SARS-CoV Urbani [2]: 0.0 | Binding of serum SARS-yellow to looped/cyclic peptides of protein X1 of SARS-CoV Urbani [2]: 0.4 | Binding of a rabbit serum to linear peptides [3]: 0.1 | Binding of a rabbit serum to looped peptides [3]: 0.5
